# In patent US20160281095A1, “Alkynyl-Derivatized Cap Analogs, Preparation and Uses Thereof” (LIFE TECHNOLOGIES CORPORATION, priority 2011, published 2016):
# How the values were obtained:
# T7 RNA polymerase = T7 RNA polymerase (Escherichia phage T7, UniProt P00573); settings: T7 RNA polymerase transcription, pTri β actin template, cap analog 1.6 mM, GTP 0.4 mM, 37° C. 2 h, 20% dPAGE gel
# Method: The gel shift assay was performed by using a pTri β actin template and the IVT reaction used linearized AmbLuc poly(A) DNA template and a [sequence] kit (Life Technologies Corporation). Radiation in the gel bands of interest was quantified by a phosphorimager (GE Healthcare).
# To analyze capping efficiency during transcription a Gel Shift Assay was used. The Gel shift assay was performed using the MAXISCRIPT kit (Life Technologies Corporation) by following the manufacturer's protocol. A typical 20 μL T7 RNA polymerase transcription reaction contained the following reagents at the final concentrations indicated: linearized pTri β actin vector template, 0.5 μg; ATP, 2 mM; GTP, 0.4 mM; compound standard cap analog and alkynyl-derivatized cap analog 7, 1.6 mM each in separate reactions; 10× reaction buffer, 4 μl; T7 RNA polymerase, 50 units/μL; (α-^32P) ATP, 800 (Ci/mmol); and DEPC water. The control reaction was a normal in vitro transcription reaction, in which no cap analog was added. […] Radiation in the gel bands of interest was quantified by a phosphoroimager (GE Healthcare).
# Due to the omission of CTP and UTP, only the 5′ end was transcribed by T7 RNA polymerase, producing a transcript of six nucleotides in length. The resulting transcription products were analyzed by 20% denaturing polyacrylamide/8 M urea gel.
# HeLa cells = experiment: Translation efficiency: luciferase activity after transfection of capped luciferase mRNA poly(A); assay type: cell-based; settings: luciferase mRNA poly(A) transfected into HeLa cells, 16 h, versus m^7GpppG-capped mRNA
# Method: Alkynyl-derivatized capped mRNAs were produced in vitro for use in translation assays. […] In order to hydrolyze the remaining plasmid DNA, 1 μL of TURBO DNase was added to the reaction mixture and further incubated at 37° C. for 15 min. Purification of transcription reactions was done by using the MEGAclear™ kit (Life Technologies Corp) as per manufacturer's protocol. The in vitro transcription results in a mixture of 5′analog-capped and uncapped mRNAs.
# To determine the translational efficiency, the luciferase mRNA poly(A) product generated from the transcription reaction using a standard cap and the luciferase mRNA poly(A) product generated as described above using the alkyne-derivatized cap 7 were transfected separately into HeLa cells.
# The HeLa cells (60,000/well in 24 well-plates) were seeded at least 12 h before transfection in growth medium without antibiotics. Capped RNA was prepared by mixing 600 ng of RNA, 2.5 μL of TFX-20™ (Promega), and 300 μL of serum-free DMEM in polystyrene tubes and incubated for 15 min at room temperature. […] The plate was mixed carefully to disrupt the cells and 10 μL of cell lysates from each transfection reactions were mixed with 100 μL of luciferase substrate (Promega) and measured immediately on a POLARstar OPTIMA Luminometer (BMG Labtech) in 96-well plates. […]
# Sequence of T7 RNA polymerase (P00573 whole entry): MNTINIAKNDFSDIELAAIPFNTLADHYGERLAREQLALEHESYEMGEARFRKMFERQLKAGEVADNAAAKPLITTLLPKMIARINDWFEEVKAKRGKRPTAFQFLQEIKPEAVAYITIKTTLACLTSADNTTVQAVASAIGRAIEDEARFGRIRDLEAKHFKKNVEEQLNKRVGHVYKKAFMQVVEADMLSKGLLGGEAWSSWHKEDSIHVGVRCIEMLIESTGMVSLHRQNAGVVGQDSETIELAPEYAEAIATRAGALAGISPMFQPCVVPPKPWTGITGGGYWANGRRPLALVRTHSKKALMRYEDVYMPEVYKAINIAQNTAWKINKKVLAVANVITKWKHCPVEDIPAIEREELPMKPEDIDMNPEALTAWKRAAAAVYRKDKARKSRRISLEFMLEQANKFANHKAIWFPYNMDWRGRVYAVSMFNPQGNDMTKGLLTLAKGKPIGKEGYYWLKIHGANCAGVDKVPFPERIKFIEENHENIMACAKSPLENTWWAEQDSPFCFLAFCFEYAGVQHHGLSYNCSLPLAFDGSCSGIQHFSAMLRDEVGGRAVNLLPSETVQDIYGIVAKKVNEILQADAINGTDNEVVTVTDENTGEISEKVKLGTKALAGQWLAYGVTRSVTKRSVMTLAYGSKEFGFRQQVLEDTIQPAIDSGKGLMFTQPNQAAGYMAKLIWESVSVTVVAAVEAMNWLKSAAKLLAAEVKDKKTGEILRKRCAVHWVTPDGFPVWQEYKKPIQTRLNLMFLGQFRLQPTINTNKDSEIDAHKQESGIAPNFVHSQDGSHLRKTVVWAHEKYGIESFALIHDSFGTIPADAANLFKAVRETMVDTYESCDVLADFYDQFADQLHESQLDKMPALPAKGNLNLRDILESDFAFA
SMILES,capping efficiency (T7 RNA polymerase),translational efficiency (luciferase signal) relative to mRNA capped with the standard cap analog (HeLa cells),translational efficiency (luciferase signal) relative to mRNA capped with the standard cap analog (HeLa cells; listed as 3′-O-propargyl substituted cap analog)
"Cn1c[n+]([C@@H]2O[C@H](COP(=O)(O)OP(=O)(O)OP(=O)(O)OC[C@H]3O[C@@H](n4cnc5c(=O)[nH]c(N)nc54)[C@H](O)[C@@H]3O)[C@@H](O)[C@H]2O)c2nc(N)[nH]c(=O)c21 [standard cap, m^7G(5′)ppp(5′)G, reference compound]",73%,–,–
"C#CCO[C@H]1[C@@H](O)[C@H](n2c[n+](C)c3c(=O)[nH]c(N)nc32)O[C@@H]1COP(=O)(O)OP(=O)(O)OP(=O)(O)OC[C@H]1O[C@@H](n2cnc3c(=O)[nH]c(N)nc32)[C@H](O)[C@@H]1O [compound 7, m^7,3′-O-propargylG[5′]ppp[5′]G]",60%,up to 3 fold,3.1 fold
